Source: patent EP4238973A1, “SUBSTITUTED 1,2,4-THIADIAZOLYL ISONICOTINAMIDES, SALTS OR N-OXIDES THEREOF AND THEIR USE AS HERBICIDALLY ACTIVE SUBSTANCES” (Bayer AG, priority 2022, dated 2023)

Legend:
Format in all cases: in vivo
Lolium rigidum [1] = test: Herbicidal pre-emergence action; conditions: visual grading after ca. 3 weeks vs untreated controls
Excerpt: (§1) Seeds of mono- and dicotyledonous weed plants were sown in plastic pots (double sowings with one species of mono- and one species of dicotyledonous weed plants per pot), in sandy loam, and covered with soil. The compounds according to the invention, formulated in the form of wettable powders (WP) or as emulsifiable concentrates (EC), were applied to the surface of the covering soil as an aqueous suspension or as an emulsion, with the addition of 0.5% of an additive, at an application rate of 600 litres of water per hectare (converted). Following treatment, the pots were placed in a greenhouse and kept under optimum growth conditions for the test plants. The visual grading of the damage to the test plants is carried out after ca. 3 weeks in comparison to untreated controls (herbicidal effect in percent (%): 100% effect = plants have died, 0% effect = as control plants). Seeds of mono- and dicotyledonous weed plants were sown in plastic pots (double sowings with one species of mono- and one species of dicotyledonous weed plants per pot), in sandy loam, and covered with soil. The compounds according to the invention, formulated in the form of wettable powders (WP) or as emulsifiable concentrates (EC), were applied to the surface of the covering soil as an aqueous suspension or as an emulsion, with the addition of 0.5% of an additive, at an application rate of 600 litres of water per hectare (converted). Following treatment, the pots were placed in a greenhouse and kept under optimum growth conditions for the test plants. The visual grading of the damage to the test plants is carried out after ca. 3 weeks in comparison to untreated controls (herbicidal effect in percent (%): 100% effect = plants have died, 0% effect = as control plants).

Matricaria inodora [2] = test: Herbicidal pre-emergence action; conditions: 1280 g/ha, visual grading after ca. 3 weeks vs untreated controls
Excerpt: as §1

Poa annua [3] = test: Herbicidal pre-emergence action; conditions: visual grading after ca. 3 weeks vs untreated controls
Excerpt: as §1

Stellaria media [4] = test: Herbicidal pre-emergence action; conditions: visual grading after ca. 3 weeks vs untreated controls
Excerpt: as §1

Alopecurus myosuroides [5] = test: Herbicidal post-emergence action; conditions: 1280 g/ha, visual assessment after ca. 3 weeks vs untreated controls
Excerpt: (§2) Seeds of mono- and dicotyledonous weed plants were sown in plastic pots (double sowings with one species of mono- and one species of dicotyledonous weed plants per pot), in sandy loam, covered with soil and grown under controlled growth conditions. 2 to 3 weeks after sowing, the test plants were sprayed in the single-leaf stage. The compounds according to the invention, formulated in the form of wettable powders (WP) or as emulsifiable concentrates (EC), were sprayed onto the green plant parts as an aqueous suspension or as an emulsion, with the addition of 0.5% of an additive, at an application rate of 600 litres of water per hectare (converted). The test plants were placed in the greenhouse for ca. 3 weeks under optimum growth conditions, and then the effect of the preparations is assessed visually in comparison with untreated controls (herbicidal effect in percent (%): 100% effect = plants have died, 0% effect = as control plants).
as §2, with “(EC), are” for “(EC), were”, “controls (herbicidaleffectinpercent(%):100%effect=plantshavedied,0%effect=ascontrolplants). [formula]” for “controls (herbicidal effect in percent (%): 100% effect = plants have died, 0% effect = as control plants).”

Amaranthus retroflexus [6] = test: Herbicidal post-emergence action; conditions: visual assessment after ca. 3 weeks vs untreated controls
Excerpt: as §2
as §2, with “(EC), are” for “(EC), were”, “controls (herbicidaleffectinpercent(%):100%effect=plantshavedied,0%effect=ascontrolplants). [formula]” for “controls (herbicidal effect in percent (%): 100% effect = plants have died, 0% effect = as control plants).”

Kochia scoparia [7] = test: Herbicidal post-emergence action; conditions: visual assessment after ca. 3 weeks vs untreated controls
Excerpt: as §2
as §2, with “(EC), are” for “(EC), were”, “controls (herbicidaleffectinpercent(%):100%effect=plantshavedied,0%effect=ascontrolplants). [formula]” for “controls (herbicidal effect in percent (%): 100% effect = plants have died, 0% effect = as control plants).”

Matricaria inodora [8] = test: Herbicidal post-emergence action; conditions: visual assessment after ca. 3 weeks vs untreated controls
Excerpt: as §2
as §2, with “(EC), are” for “(EC), were”, “controls (herbicidaleffectinpercent(%):100%effect=plantshavedied,0%effect=ascontrolplants). [formula]” for “controls (herbicidal effect in percent (%): 100% effect = plants have died, 0% effect = as control plants).”

Poa annua [9] = test: Herbicidal post-emergence action; conditions: visual assessment after ca. 3 weeks vs untreated controls
Excerpt: as §2
as §2, with “(EC), are” for “(EC), were”, “controls (herbicidaleffectinpercent(%):100%effect=plantshavedied,0%effect=ascontrolplants). [formula]” for “controls (herbicidal effect in percent (%): 100% effect = plants have died, 0% effect = as control plants).”

Setaria viridis [10] = test: Herbicidal post-emergence action; conditions: visual assessment after ca. 3 weeks vs untreated controls
Excerpt: as §2
as §2, with “(EC), are” for “(EC), were”, “controls (herbicidaleffectinpercent(%):100%effect=plantshavedied,0%effect=ascontrolplants). [formula]” for “controls (herbicidal effect in percent (%): 100% effect = plants have died, 0% effect = as control plants).”

Stellaria media [11] = test: Herbicidal post-emergence action; conditions: visual assessment after ca. 3 weeks vs untreated controls
Excerpt: as §2
as §2, with “(EC), are” for “(EC), were”, “controls (herbicidaleffectinpercent(%):100%effect=plantshavedied,0%effect=ascontrolplants). [formula]” for “controls (herbicidal effect in percent (%): 100% effect = plants have died, 0% effect = as control plants).”

Veronica persica [12] = test: Herbicidal post-emergence action; conditions: visual assessment after ca. 3 weeks vs untreated controls
Excerpt: as §2
as §2, with “(EC), are” for “(EC), were”, “controls (herbicidaleffectinpercent(%):100%effect=plantshavedied,0%effect=ascontrolplants). [formula]” for “controls (herbicidal effect in percent (%): 100% effect = plants have died, 0% effect = as control plants).”

Amaranthus retroflexus [13] = test: Herbicidal pre-emergence action; conditions: 1280 g/ha, visual grading after ca. 3 weeks vs untreated controls
Excerpt: as §1

Digitaria sanguinalis [14] = test: Herbicidal pre-emergence action; conditions: 1280 g/ha, visual grading after ca. 3 weeks vs untreated controls
Excerpt: as §1

Kochia scoparia [15] = test: Herbicidal pre-emergence action; conditions: 1280 g/ha, visual grading after ca. 3 weeks vs untreated controls
Excerpt: as §1

Setaria viridis [16] = test: Herbicidal pre-emergence action; conditions: 1280 g/ha, visual grading after ca. 3 weeks vs untreated controls
Excerpt: as §1

Veronica persica [17] = test: Herbicidal pre-emergence action; conditions: 1280 g/ha, visual grading after ca. 3 weeks vs untreated controls
Excerpt: as §1

Digitaria sanguinalis [18] = test: Herbicidal post-emergence action; conditions: visual assessment after ca. 3 weeks vs untreated controls
Excerpt: as §2
as §2, with “(EC), are” for “(EC), were”, “controls (herbicidaleffectinpercent(%):100%effect=plantshavedied,0%effect=ascontrolplants). [formula]” for “controls (herbicidal effect in percent (%): 100% effect = plants have died, 0% effect = as control plants).”

Lolium rigidum [19] = test: Herbicidal post-emergence action; conditions: visual assessment after ca. 3 weeks vs untreated controls
Excerpt: as §2
as §2, with “(EC), are” for “(EC), were”, “controls (herbicidaleffectinpercent(%):100%effect=plantshavedied,0%effect=ascontrolplants). [formula]” for “controls (herbicidal effect in percent (%): 100% effect = plants have died, 0% effect = as control plants).”

Alopecurus myosuroides [20] = test: Herbicidal pre-emergence action; conditions: 1280 g/ha, visual grading after ca. 3 weeks vs untreated controls
Excerpt: as §1

Abutilon theophrasti [21] = test: Herbicidal post-emergence action; conditions: 1280 g/ha, visual assessment after ca. 3 weeks vs untreated controls
Excerpt: as §2
as §2, with “(EC), are” for “(EC), were”, “controls (herbicidaleffectinpercent(%):100%effect=plantshavedied,0%effect=ascontrolplants). [formula]” for “controls (herbicidal effect in percent (%): 100% effect = plants have died, 0% effect = as control plants).”

Abutilon theophrasti [22] = test: Herbicidal pre-emergence action; conditions: 1280 g/ha, visual grading after ca. 3 weeks vs untreated controls
Excerpt: as §1

Echinochloa crus-galli = test: Herbicidal pre-emergence action; conditions: 1280 g/ha, visual grading after ca. 3 weeks vs untreated controls
Excerpt: as §1

Row | Structure (SMILES) | herbicidal effect in percent (%), LOLRI (Lolium rigidum [1]; 1280 g/ha) | herbicidal effect in percent (%), MATIN (Matricaria inodora [2]) | herbicidal effect in percent (%), POAAN (Poa annua [3]; 320 g/ha) | herbicidal effect in percent (%), POAAN (Poa annua [3]; 1280 g/ha) | herbicidal effect in percent (%), STEME (Stellaria media [4]; 1280 g/ha) | herbicidal effect in percent (%), ALOMY (Alopecurus myosuroides [5]) | herbicidal effect in percent (%), AMARE (Amaranthus retroflexus [6]; 1280 g/ha) | herbicidal effect in percent (%), KCHSC (Kochia scoparia [7]; 1280 g/ha) | herbicidal effect in percent (%), MATIN (Matricaria inodora [8]; 320 g/ha) | herbicidal effect in percent (%), MATIN (Matricaria inodora [8]; 1280 g/ha) | herbicidal effect in percent (%), POAAN (Poa annua [9]; 1280 g/ha) | herbicidal effect in percent (%), SETVI (Setaria viridis [10]; 1280 g/ha) | herbicidal effect in percent (%), STEME (Stellaria media [11]; 1280 g/ha) | herbicidal effect in percent (%), VERPE (Veronica persica [12]; 1280 g/ha) | herbicidal effect in percent (%), AMARE (Amaranthus retroflexus [13]) | herbicidal effect in percent (%), VERPE (Veronica persica [17]) | herbicidal effect in percent (%), DIGSA (Digitaria sanguinalis [18]; 1280 g/ha) | herbicidal effect in percent (%), LOLRI (Lolium rigidum [19]; 1280 g/ha) | herbicidal effect in percent (%), STEME (Stellaria media [11]; 320 g/ha) | herbicidal effect in percent (%), VERPE (Veronica persica [12]; 320 g/ha) | other results
1 | O=C(Nc1ncns1)c1cc(F)ncc1Br [Example I-027, 5-bromo-2-fluoro-N-(1,2,4-thiadiazol-5-yl)pyridine-4-carboxamide] | 100% | 90% | 90% | 90% | 100% | 90% | 90% | 90% | 90% | 90% | 90% | 90% | 90% | 90% |  |  |  |  |  |  | herbicidal effect in percent (%), LOLRI (Lolium rigidum [1]; 320 g/ha): 90%
2 | O=C(Nc1ncns1)c1ccncc1I [Example 1-004] | 100% | 90% | 90% | 90% | 90% | 100% | 100% | 90% |  | 100% | 100% | 90% | 100% | 100% | 90% | 90% | 100% | 100% | 100% | 100% | herbicidal effect in percent (%), DIGSA (Digitaria sanguinalis [14]): 90%; herbicidal effect in percent (%), KCHSC (Kochia scoparia [15]): 90%; herbicidal effect in percent (%), SETVI (Setaria viridis [16]): 90%; herbicidal effect in percent (%), STEME (Stellaria media [4]; 320 g/ha): 90%; herbicidal effect in percent (%), DIGSA (Digitaria sanguinalis [18]; 320 g/ha): 90%; herbicidal effect in percent (%), POAAN (Poa annua [9]; 320 g/ha): 100%; herbicidal effect in percent (%), SETVI (Setaria viridis [10]; 320 g/ha): 90%
3 | O=C(Nc1ncns1)c1c(Br)cncc1Br [Example I-015] | 90% | 100% | 100% | 100% | 90% | 100% | 90% | 100% | 100% | 100% | 100% |  | 100% | 100% |  | 100% | 100% | 100% | 100% | 100% | herbicidal effect in percent (%), ALOMY (Alopecurus myosuroides [20]): 100%; herbicidal effect in percent (%), DIGSA (Digitaria sanguinalis [14]): 100%; herbicidal effect in percent (%), ABUTH (Abutilon theophrasti [21]): 100%; herbicidal effect in percent (%), POAAN (Poa annua [9]; 320 g/ha): 100%
4 | O=C(Nc1ncns1)c1cc(Cl)ncc1Cl [Example I-011] | 90% | 100% |  | 100% | 90% | 100% | 100% | 100% | 100% | 100% | 90% |  | 100% | 100% | 90% |  | 100% | 90% | 90% | 90% | herbicidal effect in percent (%), ALOMY (Alopecurus myosuroides [20]): 90%; herbicidal effect in percent (%), ABUTH (Abutilon theophrasti [21]): 90%; herbicidal effect in percent (%), AMARE (Amaranthus retroflexus [6]; 320 g/ha): 90%; herbicidal effect in percent (%), DIGSA (Digitaria sanguinalis [18]; 320 g/ha): 90%; herbicidal effect in percent (%), KCHSC (Kochia scoparia [7]; 320 g/ha): 90%
5 | O=C(Nc1ncns1)c1cc(Cl)ncc1OC(F)(F)F [Example 1-012, 2-chloro-N-(1,2,4-thiadiazol-5-yl)-5-(trifluoromethoxy)pyridine-4-carboxamide] | 100% |  |  | 90% |  |  | 100% | 90% |  | 100% | 90% | 90% | 100% | 100% |  |  |  |  |  |  | herbicidal effect in percent (%), ABUTH (Abutilon theophrasti [21]): 90%
6 | O=C(Nc1ncns1)c1cc(Cl)ncc1C(F)(F)F [Example I-013, 2-chloro-N-(1,2,4-thiadiazol-5-yl)-5-(trifluoromethyl)pyridine-4-carboxamide] | 100% | 100% |  | 90% | 100% | 90% | 100% | 100% | 100% | 100% | 100% |  | 100% | 100% | 100% | 100% |  | 100% | 100% | 100% | herbicidal effect in percent (%), ABUTH (Abutilon theophrasti [22]): 90%; herbicidal effect in percent (%), ALOMY (Alopecurus myosuroides [20]): 90%; herbicidal effect in percent (%), ECHCG (Echinochloa crus-galli): 100%; herbicidal effect in percent (%), KCHSC (Kochia scoparia [15]): 100%; herbicidal effect in percent (%), LOLRI (Lolium rigidum [1]; 320 g/ha): 90%; herbicidal effect in percent (%), KCHSC (Kochia scoparia [7]; 320 g/ha): 100%; herbicidal effect in percent (%), LOLRI (Lolium rigidum [19]; 320 g/ha): 90%; herbicidal effect in percent (%), POAAN (Poa annua [9]; 320 g/ha): 100%
7 | O=C(Nc1nc(Cl)ns1)c1ccncc1I [Example 1-023, N-(3-chloro-1,2,4-thiadiazol-5-yl)-3-iodo-pyridine-4-carboxamide] | 90% | 100% |  |  | 100% |  | 90% | 90% |  | 100% | 90% |  | 90% |  | 100% |  |  |  |  |  | 
